BindingDB's records for doi:10.1016/s0960-894x(00)00023-8 (Dupont Pharmaceuticals, 2000)
Structures can show the parent of a compound that is named as a salt.

Test: Inhibition of platelet aggregation in human platelet rich plasma (hPRP)

Compound	IC50 [µM]
N=C(N)c1ccc(C2=NOC(CC(=O)N3CCCCC3CC(=O)O)C2)cc1 (configuration not stated) [(1-{2-[3-(4-Carbamimidoyl-phenyl)-4,5-dihydro-isoxazol-5-yl]-acetyl}-piperidin-2-yl)-acetic acid; TFA]	0.28
N=C(N)c1ccc(C2=NOC(CC(=O)N3CCCC(C(=O)O)C3)C2)cc1 (configuration not stated) [1-{2-[3-(4-Carbamimidoyl-phenyl)-4,5-dihydro-isoxazol-5-yl]-acetyl}-piperidine-3-carboxylic acid; TFA]	5.2
N=C(N)c1ccc(C2=NOC(CC(=O)N3CCC(=O)C(C(=O)O)C3)C2)cc1 (configuration not stated) [1-{2-[3-(4-Carbamimidoyl-phenyl)-4,5-dihydro-isoxazol-5-yl]-acetyl}-4-oxo-piperidine-3-carboxylic acid; TFA]	6.4
N=C(N)c1ccc(C2=NOC(CC(=O)N3CCCC3CC(=O)O)C2)cc1 (configuration not stated) [(1-{2-[3-(4-Carbamimidoyl-phenyl)-4,5-dihydro-isoxazol-5-yl]-acetyl}-pyrrolidin-2-yl)-acetic acid; TFA]	1.1
N=C(N)c1ccc(C2=NOC(CC(=O)N3CCCCCC3CC(=O)O)C2)cc1 (configuration not stated) [(1-{2-[3-(4-Carbamimidoyl-phenyl)-4,5-dihydro-isoxazol-5-yl]-acetyl}-azepan-2-yl)-acetic acid; TFA]	3.7
N=C(N)c1ccc(C2=NOC(CC(=O)N3CCC(C(=O)O)CC3)C2)cc1 (configuration not stated) [1-{2-[3-(4-Carbamimidoyl-phenyl)-4,5-dihydro-isoxazol-5-yl]-acetyl}-piperidine-4-carboxylic acid; TFA]	2.5

Test: as above
Remark: another data set of the same source

Compound	IC50 [nM]
N=C(N)c1ccc(C2=NOC(CC(=O)NCCC(=O)O)C2)cc1 (configuration not stated)	60
